Patent US20240228572A1 (i2o Therapeutics, Inc., priority 2020, published 2024)
*1 amine or outer side, *2 acyl side, *3 side chain or, on linkers, in order; H or OH if unused. Where a SMILES comes first, the peptide text is derived from it. Side-chain parts run from the residue outwards. [ ]: non-standard residue; d: D form. The star is where a group is joined. C20 diacid = O=C(O)CCCCCCCCCCCCCCCCCCC(=O)*; γGlu = O=C(O)[C@H](CCC(=O)[*:2])N[*:1]; AEEA = NCCOCCOCC(=O)O; Aib = CC(C)(N)C(=O)O

Assay: Stability in human subcutaneous (SC) tissue homogenates
Format: in vitro ADME
Details: subcutaneous (SC) tissue homogenate, 10 mcM peptide, 1.0 mg protein/mL, 37° C., pH 7.4, read-out: (H)SC tissue stability t½ (converted)
Procedure: In vitro incubations in subcutaneous (SC) tissue homogenates were used to characterize the ability of peptides to resist pre-systemic degradation by proteases and peptidases after SC administration. In vivo nonclinical studies have shown that peptidase activity in the SC space can limit the bioavailability of a peptide after SC administration. Peptides with high SC bioavailability are stable in this assay, while peptides with low SC bioavailability are unstable in this assay.
Human SC tissue was homogenized in cold 25 mM HEPES buffer (pH 7.4, 10-fold volume based on sample weight), and then filtered through a double layer of cheesecloth. The filtrates were aliquoted, flash frozen on a methanol/dry ice bath and stored at −80° C. The protein concentration of each pooled batch was determined using the BCA protein assay. Thawed stocks of human SC tissue homogenates were diluted to 1.0 mg protein/mL in 25 mM HEPES buffer (pH 7.4) and aliquoted into a 96-well plate. The diluted SC homogenates were pre-warmed for 10 minutes at 37° C. Reactions were initiated by the addition of test peptide (10 mcM final concentration) also dissolved in 25 mM HEPES buffer (pH 7.4). Reactions were maintained at 37° C. in a shaking water bath. […] Samples were analyzed by UPLC-MS/MS.

CC(C)C[C@H](NC(=O)[C@H](Cc1ccc(O)cc1)NC(=O)[C@H](CCCCN)NC(=O)[C@H](CO)NC(=O)[C@H](Cc1ccc(O)cc1)NC(=O)[C@H](CC(=O)O)NC(=O)[C@H](CO)NC(=O)[C@@H](NC(=O)[C@H](Cc1ccccc1)NC(=O)[C@@H](NC(=O)CNC(=O)[C@H](Cc1c[nH]cn1)NC(=O)[C@H](CO)NC(=O)[C@@H](N)Cc1ccc(O)cc1)[C@@H](C)O)[C@@H](C)O)C(=O)N[C@@H](CC(=O)O)C(=O)NC(C)(C)C(=O)N[C@@H](CCCCN)C(=O)N[C@@H](Cc1ccc(O)cc1)C(=O)N[C@@H](C)C(=O)N[C@@H](CCC(N)=O)C(=O)N[C@@H](CCCCNC(=O)CC[C@H](NC(=O)CC[C@H](NC(=O)COCCOCCNC(=O)CCCCCCCCCCCCCCCCCCC(=O)O)C(=O)O)C(=O)O)C(=O)N[C@@H](Cc1ccccc1)C(=O)N[C@H](C(=O)NC(C)(C)C(=O)N[C@@H](Cc1c[nH]c2ccccc12)C(=O)N[C@@H](CC(C)C)C(=O)N[C@@H](CCC(=O)O)C(=O)N[C@@H](CC(=O)O)C(=O)N[C@@H](CCC(=O)O)C(=O)N1CCC[C@H]1C(=O)N[C@@H](CO)C(=O)N[C@@H](CO)C(=O)NCC(=O)N[C@@H](C)C(=O)N1CCC[C@H]1C(=O)N1CCC[C@H]1C(=O)N1CCC[C@H]1C(=O)N[C@@H](CO)C(=O)O)C(C)C [Compound A6] (H-YSHGTFTSDYSKYLD[Aib]KYAQK([γGlu-γGlu-AEEA-C20 diacid])FV[Aib]WLEDEPSSGAPPPS-OH; N-terminus assumed)
half-life at 10 mcM: 10.6 h
